Active and inactive are the calls of the source. No cut-off for these calls is given here.
Tests used:
[1] = tested on: VCaP; assay: Inhibition of c-Myc expression level in human VCap cells at 10 nM incubated for 24 hrs by immunoblotting analysis; assay type: functional, cell-based
[2] = tested on: VCaP; assay: Antiproliferative activity against AR-positive human VCaP cells assessed as reduction in cell viability measured after 4 days by MTT assay; assay type: functional, cell-based; details: 96 h
[3] = tested on: LNCaP; assay: Antiproliferative activity against AR-positive harmone sensitive human LNCaP cells assessed as reduction in cell viability measured after 4 days by MTT assay; assay type: functional, cell-based; details: 96 h
[4] = biological target: T1, Protein cereblon/Bromodomain-containing protein 4 (Homo sapiens) (UniProt O60885+Q96SW2); assay: Protac activity at BRD4/CRBN in AR-positive harmone sensitive human LNCaP cells assessed as degradation of BRD4 by measuring downregulation of BRD4 expression level at 1 nM by Western blot analysis; assay type: cell-based; details: time 2-48 hrs, TDE = time-dependent effect
[5] = biological target: T1, Protein cereblon/Bromodomain-containing protein 4 (Homo sapiens); assay: Protac activity at BRD4/CRBN in AR-positive human 22Rv1 cells assessed as degradation of BRD4 by measuring downregulation of BRD4 expression level measured after 24 hrs by Western blot analysis; assay type: cell-based; details: dose 1-10000 nM, DDE = dose-dependent effect
[6] = biological target: T1, Protein cereblon/Bromodomain-containing protein 4 (Homo sapiens); assay: Protac activity at BRD4/CRBN in AR-negative human castration resistant DU-145 cells assessed as degradation of BRD4 by measuring downregulation of BRD4 expression level at 1 nM by Western blot analysis; assay type: cell-based; details: time 2-48 hrs, TDE = time-dependent effect
[7] = biological target: T1, Protein cereblon/Bromodomain-containing protein 4 (Homo sapiens); assay: Protac activity at BRD4/CRBN in AR-positive human 22Rv1 cells assessed as degradation of BRD4 at 100 nM measured after 3 hrs in presence of cycloheximide by Western blot analysis; assay type: cell-based
[8] = biological target: Serine/threonine-protein kinase PLK1 (Homo sapiens, UniProt P53350); assay: Inhibition of PLK1 in AR-positive human 22Rv1 cells at 100 nM measured after 3 hrs in presence of cycloheximide by Western blot analysis; assay type: cell-based
[9] = biological target: T1, Protein cereblon/Bromodomain-containing protein 4 (Homo sapiens); assay: Protac activity at BRD4/CRBN in AR-positive human VCaP cells assessed as degradation of BRD4 at 1 uM measured after 24 hrs in presence of MG-132 by Western blot analysis; assay type: cell-based
[10] = biological target: T1, Protein cereblon/Bromodomain-containing protein 4 (Homo sapiens); assay: Protac activity at BRD4/CRBN in AR-positive human VCaP cells assessed as degradation of BRD4 at 1 uM measured after 24 hrs in presence of MLN4924 by Western blot analysis; assay type: cell-based
[11] = tested on: CWR22R; assay: Induction of cell cycle arrest in AR-positive human 22Rv1 cells assessed as downregulation of CDK2 expression at 100 to 1000 nM measured after 72 hrs by Western blot analysis; assay type: functional, cell-based; details: dose 100-1000 nM
[12] = tested on: CWR22R; assay: Induction of cell cycle arrest in AR-positive human 22Rv1 cells assessed as downregulation of cyclin D1 expression at 100 to 1000 nM measured after 72 hrs by Western blot analysis; assay type: functional, cell-based; details: dose 100-1000 nM

T1 sequence (Q96SW2 whole entry, looked up, other chains not shown): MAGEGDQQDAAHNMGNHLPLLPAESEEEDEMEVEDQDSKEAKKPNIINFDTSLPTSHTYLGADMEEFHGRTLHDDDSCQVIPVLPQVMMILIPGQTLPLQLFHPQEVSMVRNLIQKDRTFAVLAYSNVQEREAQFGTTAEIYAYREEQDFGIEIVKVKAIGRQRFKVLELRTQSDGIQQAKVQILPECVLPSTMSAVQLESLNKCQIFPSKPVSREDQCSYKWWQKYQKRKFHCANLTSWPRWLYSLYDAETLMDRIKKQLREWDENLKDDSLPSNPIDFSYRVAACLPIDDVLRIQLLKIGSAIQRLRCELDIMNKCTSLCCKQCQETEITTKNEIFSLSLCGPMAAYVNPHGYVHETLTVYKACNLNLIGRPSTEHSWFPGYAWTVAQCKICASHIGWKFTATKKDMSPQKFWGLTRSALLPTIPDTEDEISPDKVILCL
Sequence of Serine/threonine-protein kinase PLK1 (P53350 whole entry): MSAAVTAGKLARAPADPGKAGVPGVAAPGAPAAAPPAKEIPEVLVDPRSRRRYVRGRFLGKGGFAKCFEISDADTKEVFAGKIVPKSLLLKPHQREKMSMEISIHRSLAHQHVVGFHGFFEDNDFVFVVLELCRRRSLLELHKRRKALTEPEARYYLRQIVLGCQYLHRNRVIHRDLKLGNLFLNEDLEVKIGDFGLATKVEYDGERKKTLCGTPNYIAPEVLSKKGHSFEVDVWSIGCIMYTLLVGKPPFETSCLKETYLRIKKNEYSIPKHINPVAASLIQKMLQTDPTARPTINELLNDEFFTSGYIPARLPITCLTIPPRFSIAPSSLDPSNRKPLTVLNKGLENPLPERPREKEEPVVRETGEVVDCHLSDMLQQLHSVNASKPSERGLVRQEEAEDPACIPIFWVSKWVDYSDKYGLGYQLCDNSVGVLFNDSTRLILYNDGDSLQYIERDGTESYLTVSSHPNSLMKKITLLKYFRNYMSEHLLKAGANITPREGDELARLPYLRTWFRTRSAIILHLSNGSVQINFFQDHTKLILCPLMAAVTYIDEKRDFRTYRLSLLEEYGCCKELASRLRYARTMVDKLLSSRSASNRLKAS

SMILES: CC[C@@H]1c2nnc(C)n2-c2cnc(Nc3ccc(C(=O)NC4CCN(C(=O)COc5cccc6c5C(=O)N(C5CCC(=O)NC5=O)C6=O)CC4)cc3OC)nc2N1CC1CCCCC1 (some centres not stated)
- inhibition [1]: Active
- IC50 [2]: 16 nM
- IC50 [3]: 21 nM
- Activity [4]: Tde
- Activity [5]: Dde
- Activity [6]: Tde
- Activity [7]: Active
- inhibition [8]: Active
- Activity [9]: Active
- Activity [10]: Active
- Activity [11]: Active
- Activity [12]: Active

Source: ChEMBL document CHEMBL5143521, “Identification of a selective BRD4 PROTAC with potent antiproliferative effects in AR-positive prostate cancer based on a dual BET/PLK1 inhibitor” (Eur J Med Chem, 2022)
